In US20210285955A1, “METHODS AND REAGENTS FOR ANALYZING PROTEIN-PROTEIN INTERFACES” (Revolution Medicines, Inc., priority 2017, published 2021):

Assays:
Assay type in all cases: binding
[1] = biological target: T1, KRASGTP/S39C lite (Homo sapiens, UniProt P01116, C118S/C51S/C80L/G12V/S39C); assay: Conjugate formation (cross-linking) assessed by SDS-PAGE
T1 construct: KRASGTP/S39C lite (in house; residues 1-169 containing G12V/S39C/C51S/C80L/C118S); made in house
Method: General Protocol: This protocol describes a method for the formation of target protein-compound conjugates.
(§1) Experimental Protocol: A 1:2 molar ratio of target protein and compound are mixed together in 12.5 mM HEPES pH 7.4, 75 mM NaCl buffer containing 2% DMSO. The reaction is incubated at 37° C. for 30 min, followed by overnight incubation at room temperature. Cross-linking efficiency is assessed by SDS-PAGE gel. Conjugates migrate slower than non-cross-linked target protein. For thiol reactive compounds, the Cys specific attachment of the compound to the target protein can be further confirmed by SDS-PAGE after the addition of 100 mM DTT to the reaction mixture, which reduces the conjugate back into its components.
Experimental Protocol: A 1:2 molar ratio of KRASGTP/S39C lite and C2-FK506 are mixed together in 12.5 mM HEPES pH 7.4, 75 mM NaCl buffer containing 2% DMSO. The reaction is incubated at 37° C. for 30 min, followed by overnight incubation at room temperature. Cross-linking efficiency is assessed by SDS-PAGE gel. Attachment of C2-FK506 to Cysteine 39 on KRASGTP/S39C lite is also assessed by incubation of the reaction mixture with 100 mM DTT.

[2] = biological target: T2, KRASGTP/S39C lite and FKBP12 (Homo sapiens, UniProt P01116+P62942, C118S/C51S/C80L/G12V/S39C); assay: Ternary complex formation by SEC and SDS-PAGE; conditions: 1:2:2 compound:FKBP12:KRAS, SEC profile and SDS-PAGE of elution peaks
T2 construct: KRASGTP/S39C lite (in house; residues 1-169 containing G12V/S39C/C51S/C80L/C118S); made in house
Method: (§2) A 1:2:2 molar ratio of compound, presenter protein, and target protein are mixed together in 12.5 mM HEPES pH 7.4, 75 mM NaCl buffer containing 2% DMSO. The reaction is incubated at 37° C. for 30 min, followed by overnight incubation at room temperature. Pure complex is isolated by Size Exclusion Chromatography (SEC) purification. The reaction mixture is directly injected on a Superdex 75 column (CV 120 mL) pre-equilibrated with buffer containing 12.5 mM HEPES pH 7.4, 75 mM NaCl. Complex elutes at a higher molecular weight than unreacted target protein and presenter protein. To confirm presence of complex in the elution peak, samples are assessed by SDS-PAGE.
Experimental Protocol: A 1:2:2 molar ratio of C2-Holt, FKBP12, and KRASGTP/S39C lite are mixed together in 12.5 mM HEPES pH 7.4, 75 mM NaCl buffer containing 2% DMSO. The reaction is incubated at 37° C. for 30 min, followed by overnight incubation at room temperature. Pure complex is isolated by Size Exclusion Chromatography (SEC) purification. The reaction mixture is directly injected on a Superdex 75 column (CV 120 mL) pre-equilibrated with buffer containing 12.5 mM HEPES pH 7.4, 75 mM NaCl. […] To confirm the presence of KRASGTP/S39C lite and FKBP12 in the elution peak, samples are also assessed by SDS-PAGE.

[3] = biological target: T3, PTP1BS187C lite and FKBP12 (Homo sapiens, UniProt P18031+P62942, C121S/C32S/C92V/S187C); assay: Ternary complex formation by SEC and SDS-PAGE; conditions: 1:3:3 compound:FKBP12:PTP1B, SEC profile and SDS-PAGE of elution peaks
T3 construct: (in house; residues 1-293 containing C32S/C92V/C121S/S187C); made in house
Method: as §2
Equipment: Mini-PROTEAN TGX Gel (Bio-Rad), Superdex 75 (GE Healthcare, CV 120 mL) Experimental Protocol: A 1:3:3 molar ratio of C3SLF, FKBP12, and PTPIBswc lite are mixed together in 12.5 mM HEPES pH 7.4, 75 mM NaCl buffer containing 4% DMSO. The reaction is incubated at 37° C. for 30 min, followed by overnight incubation at room temperature. Pure complex is isolated by Size Exclusion Chromatography (SEC) purification. The reaction mixture is directly injected on a Superdex 75 column (CV 120 mL) pre-equilibrated with buffer containing 12.5 mM HEPES pH 7.4, 75 mM NaCl. […] To confirm the presence of PTP1BS187C lite and FKBP12 in the elution peak, samples are also assessed by SDS-PAGE. […]

[4] = biological target: T4, KRASGTP/G12C (Homo sapiens, UniProt P01116+P62942, G12C); assay: Cross-linking gel shift assay (12% SDS-PAGE); conditions: 60 μM KRAS, 180 μM FKBP12, 180 μM ligand, quenched by MMTS
T4 construct: KRASGTP/G12C (in-house, residues 1-169); made in house
Method: In parallel to mass spectrometry analysis, cross-linking reactions with C3 or […] were subjected to gel shift assay using 12% SDS-PAGE in the presence or absence of FKBP12 at the same experimental condition described above except that cross-linking reactions were set up at higher concentrations (60 μM KRAS, 180 μM FKBP12, and 180 μM C3 or […]) and they were quenched by MMTS to terminate the reaction.

[5] = biological target: T4, KRASGTP/G12C; assay: Presenter dependency of disulfide cross-linking by mass spectrometry; conditions: 2 μM KRAS, 10 μM ligand, 4 hours room temperature, MS
Method: This protocol describes methods to analyzing cross-linking efficiency using mass spectrometry and gel shift assay in effort to assess the presenter dependency of conjugate formation.
Experimental protocol: In order to follow the kinetics of disulfide crosslinking reactions, Agilent 6230 TOF-LC/MS and Agilent 1260 HPLC instruments employing a AdvanceBio RP-mAb C4 column (2.1×100 mm, 3.5 μm) and equipped with an auto-sampler were used. HPLC grade acetonitrile and water (each containing 1.0 mM ammonium formate and 1% formic acid by volume) were used as mobile phase with the following ramp: 0.6 ml/min flow rate, water:acetonitrile=95:5 from 0.0 to 13.0 min ramping to water:acetonitrile=5:95 from 13.0 to 17.0 min. Total time=17.0 min.
All crosslinking reactions were performed in 1.5 mL amber colored glass vials equipped with 0.5 mL glass inserts. A water-soluble peptide (SEQ ID NO: 1: […]) was employed as an internal standard. Although the actual sequence of the internal standard is inconsequential, choice of amino acid residues were critical to avoid interference in the crosslinking assays. […] All reactions and standard solutions were prepared in HEPES (pH 7.4, 1.0 mM MgCl2) buffer.
Prior to every reaction, a standard curve was obtained for the individual components using a series of standard solutions (an example of standard curve analysis for FKBP12 is shown in Table 3 below). Using the data from standard curve, μmol of protein samples were plotted against the ratio of areas (sample:std) and a linear fit (y=mx+c) was employed to obtain the slope and intercept. The value of slope and intercept involved in these standard curves were accounted for during evaluation of the substrate and product concentration before and during the course of the reaction. For every substrate/product, an initial injection was followed up by a blank injection to verify presence of any residual protein/reagents. Based on this analysis the sequence of auto-sampler can be adjusted to included appropriate number of blank injections for removal of residual components, if any. The MS spectra were analyzed using Agilent MassHunter v B.07.0 software.
In a representative experiment to assess the presenter dependency of ligand cross-linking on the target protein, KRASGTP/G12C and either C3 or C4SLF ligand were incubated in the presence or absence of FKBP12 at concentrations of 2 μM KRAS, 10 μM FKBP12, 10 μM C3 or C4SLF for 4 hours at room temperature in 12.5 mM HEPES pH 7.4, 75 mM NaCl, 1 mM MgCl2, 3% DMSO. Analysis of the amount of KRAS undergoing disulfide cross-linking with the ligand using the method above.

[6] = biological target: T5, KRASGDP/S39C lite and CypAC52S (Homo sapiens, UniProt P01116+P62937, C118S/C51S/C52S/C80L/G12V/S39C); assay: Ternary complex formation by SEC and SDS-PAGE; conditions: 1:2:2 compound:CypAC52S:KRAS, SEC profile and SDS-PAGE of elution peaks
T5 construct: KRASGDP/S39C lite (in house; residues 1-169 containing G12V/S39C/C51S/C80L/C118S); made in house
Method: as §2
Equipment: Mini-PROTEAN TGX Gel (Bio-Rad), Superdex 75 (GE Healthcare, CV 120 mL) Experimental Protocol: A 1:2:2 molar ratio of SFAC4DS, CypAC52S, and KRASGDP/S39C lite are mixed together in 12.5 mM HEPES pH 7.4, 75 mM NaCl buffer containing 2% DMSO. The reaction is incubated at 37° C. for 30 min, followed by overnight incubation at room temperature. Pure complex is isolated by Size Exclusion Chromatography (SEC) purification. The reaction mixture is directly injected on a Superdex 75 column (CV 120 mL) pre-equilibrated with buffer containing 12.5 mM HEPES pH 7.4, 75 mM NaCl. […] To confirm the presence of KRASGDP/S39C lite and CypAC52S in the elution peak, samples are also assessed by SDS-PAGE.

[7] = biological target: T6, KRASGTP/G12C lite (Homo sapiens, UniProt P01116, C118S/C51S/C80L/G12C); assay: Conjugate formation (cross-linking) assessed by SDS-PAGE; conditions: 1:2 molar ratio protein:compound, 37° C. 30 min then overnight room temperature
T6 construct: KRASGTP/G12C lite (in house; residues 1-169 containing G12C/C51S/C80L/C118S); made in house
Method: as §1
(§3) Experimental Protocol: A 1:2 molar ratio of KRASGTP/G12C lite and SFAX9DS are mixed together in 12.5 mM HEPES pH 7.4, 75 mM NaCl buffer containing 2% DMSO. The reaction is incubated at 37° C. for 30 min, followed by overnight incubation at room temperature. Cross-linking efficiency is assessed by SDS-PAGE gel. […] Cysteine 52 as a reactive Cysteine on CypA and was mutated to Serine to abrogate presenter cross-linking.

[8] = biological target: T7, CypAC52S (Homo sapiens, UniProt P62937, C52S); assay: Presenter cross-linking assessed by SDS-PAGE; conditions: CypA with Cysteine 52 mutated to Serine
T7 construct: made in house
Method: as §3

[9] = biological target: Wild-type CypA (Homo sapiens, UniProt P62937); assay: Presenter cross-linking assessed by SDS-PAGE
Method: as §3

T7 sequence (P62937 whole entry C52S): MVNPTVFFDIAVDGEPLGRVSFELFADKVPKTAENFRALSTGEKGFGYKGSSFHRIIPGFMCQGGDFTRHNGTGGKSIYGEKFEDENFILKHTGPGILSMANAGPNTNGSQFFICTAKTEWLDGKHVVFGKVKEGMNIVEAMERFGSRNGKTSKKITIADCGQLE
Wild-type CypA, sequence (P62937 whole entry): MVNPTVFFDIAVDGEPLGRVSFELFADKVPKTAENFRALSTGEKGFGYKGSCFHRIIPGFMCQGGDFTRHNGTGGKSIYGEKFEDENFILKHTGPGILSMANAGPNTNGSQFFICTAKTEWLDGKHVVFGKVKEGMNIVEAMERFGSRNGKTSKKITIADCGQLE
T3 sequence (P18031 1-293 C32S/C92V/C121S/S187C limits assumed): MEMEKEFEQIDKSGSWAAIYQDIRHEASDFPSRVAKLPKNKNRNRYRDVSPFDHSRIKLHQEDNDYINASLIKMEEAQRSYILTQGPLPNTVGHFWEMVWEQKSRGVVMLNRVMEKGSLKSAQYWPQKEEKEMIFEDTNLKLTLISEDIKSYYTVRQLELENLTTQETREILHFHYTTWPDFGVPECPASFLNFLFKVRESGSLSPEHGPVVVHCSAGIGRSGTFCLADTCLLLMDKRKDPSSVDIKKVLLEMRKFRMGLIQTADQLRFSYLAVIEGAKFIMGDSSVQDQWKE
T3 sequence (P62942 whole entry, the tested form may be a part): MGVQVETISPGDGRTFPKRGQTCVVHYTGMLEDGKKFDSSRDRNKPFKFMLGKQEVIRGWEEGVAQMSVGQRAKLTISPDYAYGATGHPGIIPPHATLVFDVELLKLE

With `CO[C@H]1C[C@@H](C)C/C(C)=C/[C@@H](CCCC(=O)NCCSSc2ccccn2)C(=O)C[C@H](O)[C@@H](C)[C@@H](/C(C)=C/[C@@H]2CC[C@@H](O)[C@H](OC)C2)OC(=O)[C@@H]2CCCCN2C(=O)C(=O)[C@]2(O)O[C@H]1[C@@H](OC)C[C@H]2C` [Compound C2-FK506] the Cross-linking efficiency ([1]; 1:2 molar ratio protein:compound, 37° C. 30 min then overnight room temperature, SDS-PAGE) was “cross-links efficiently” and the “Cys specific attachment of the compound” value ([1]; SDS-PAGE after 100 mM DTT) was “specific for Cysteine 39”.

With `CCC(C)(C)C(=O)C(=O)N1CCCC[C@H]1C(=O)OCCCC(=O)NCCSSc1ccccn1` [Compound C2Holt] the “Formation of ternary complex” value [2] was “confirm the formation”.

With `CCC(C)(C)C(=O)C(=O)N1CCCC[C@H]1C(=O)O[C@H](CCc1ccc(OC)c(OC)c1)c1cccc(NC(=O)CCSSc2ccccn2)c1` [Compound C3SLF] the “Formation of ternary complex” value [3] was “confirm the formation”, the “Ligand cross-linking efficiency in presence vs absence of FKBP12” value [4] was “boosted significantly” and the “% xlink to KRAS” value ([5]; FKBP12 + (10 μM)) was 47.5%. For the same compound, the “% xlink to KRAS” value ([5]; FKBP12 − (absent)) was 9.6%.

For `CCC(C)(C)C(=O)C(=O)N1CCCC[C@H]1C(=O)O[C@H](CCc1ccc(OC)c(OC)c1)c1cccc(NC(=O)CCCSSc2ccccn2)c1` [Compound C4SLF, (R)-3-(3,4-dimethoxyphenyl)-1-(3-(4-(pyridin-2-yldisulfanyl)butanamido)phenyl)propyl (S)-1-(3,3-dimethyl-2-oxopentanoyl)piperidine-2-carboxylate], the “Ligand cross-linking efficiency in presence vs absence of FKBP12” value [4] was “boosted significantly”, the “% xlink to KRAS” value ([5]; FKBP12 + (10 μM)) was 69.8% and the “% xlink to KRAS” value ([5]; FKBP12 − (absent)) was 7.0%.

`COC(=O)[C@@H]1CCCN(C(=O)[C@H](Cc2cccc(O)c2)NC(=O)[C@@H](NC(=O)CCCSSc2ccccn2)C(C)C)N1` [SFAC4DS] was tested, and the “Formation of ternary complex” value [6] was “confirm the formation”.

`COC(=O)[C@@H]1CCCN(C(=O)[C@H](Cc2cccc(O)c2)NC(=O)[C@@H](NC(=O)CCOCCOCCSSc2ccccn2)C(C)C)N1` [SFAX9DS] was tested, and the Cross-linking efficiency [7] was “cross-links efficiently”, the “Cross-linking to presenter protein” value [8] was “does not cross-link” and the “Cross-linking to presenter protein” value [9] was “also cross-linked”.
